Measurements reported in patent US8633183B2 (priority 2010, dated 2014).

These compounds were tested against PI3Kalpha (Homo sapiens (Human), UniProt P42336). Details: read-out: IC50 PI3K.
Sequence of PI3Kalpha (P42336 whole entry, looked up): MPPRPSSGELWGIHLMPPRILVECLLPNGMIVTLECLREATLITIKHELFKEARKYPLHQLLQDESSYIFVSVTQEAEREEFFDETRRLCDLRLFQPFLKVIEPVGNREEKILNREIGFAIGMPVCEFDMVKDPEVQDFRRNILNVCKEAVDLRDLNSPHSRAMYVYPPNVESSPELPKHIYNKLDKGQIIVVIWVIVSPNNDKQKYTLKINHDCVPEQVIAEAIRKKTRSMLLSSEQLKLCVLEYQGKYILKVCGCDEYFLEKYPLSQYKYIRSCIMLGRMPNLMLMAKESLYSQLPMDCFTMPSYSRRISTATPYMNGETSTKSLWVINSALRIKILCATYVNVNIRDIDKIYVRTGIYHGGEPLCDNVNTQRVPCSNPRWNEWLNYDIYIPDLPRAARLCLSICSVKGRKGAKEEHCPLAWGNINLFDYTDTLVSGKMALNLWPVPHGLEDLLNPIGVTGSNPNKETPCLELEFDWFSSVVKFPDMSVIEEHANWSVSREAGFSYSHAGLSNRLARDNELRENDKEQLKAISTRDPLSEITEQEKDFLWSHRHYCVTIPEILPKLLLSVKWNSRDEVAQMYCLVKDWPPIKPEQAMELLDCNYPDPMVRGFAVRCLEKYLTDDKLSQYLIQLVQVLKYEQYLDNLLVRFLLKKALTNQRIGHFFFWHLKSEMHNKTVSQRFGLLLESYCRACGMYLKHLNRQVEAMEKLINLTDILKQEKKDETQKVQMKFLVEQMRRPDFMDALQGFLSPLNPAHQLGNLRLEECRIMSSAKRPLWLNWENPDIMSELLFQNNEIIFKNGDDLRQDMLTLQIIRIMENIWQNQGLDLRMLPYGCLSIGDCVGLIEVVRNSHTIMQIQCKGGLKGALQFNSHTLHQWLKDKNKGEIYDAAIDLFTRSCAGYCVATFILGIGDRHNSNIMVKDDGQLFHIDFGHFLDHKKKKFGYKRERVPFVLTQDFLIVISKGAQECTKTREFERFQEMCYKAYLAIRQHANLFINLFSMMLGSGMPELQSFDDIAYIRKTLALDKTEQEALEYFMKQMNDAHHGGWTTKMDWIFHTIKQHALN
Experimental: Plot the concentration of each compound versus the emission ratio. […] Determination of IC50 values can be obtained by curve fitting (sigmoidal dose response, variable slope) using Prism software from GraphPad).
Method Type: Filter-Binding-Assay
Compounds are serially diluted in assay buffer+6% DMSO and 10 μl of each dilution is added per well of a 96-well plate (compounds are tested in duplicates) and mixed with 30 μl of the lipid vesicles containing PDGFR-Peptide (0.5 μM final) and PI3K alpha (25 ng/well final). The mixture is then incubated for 20 minutes at room temperature. Subsequently, 20 μl of assay buffer containing 3 μM cold ATP and 0.5 μCi/20 μl 33P-ATP are added. The plates are then incubated at room temperature for 120 minutes (shaking with 300 rpm). The reaction mix is transferred onto filter plates using “filtermate harvester” from Packard: filter plates are rinsed with PBS, then the reaction mix is filtered onto the filter plate, washed 5 times with PBS and are allowed to dry for 30-60 minutes at 50° C.
As positive control serve wells containing vehicle controls (1% DMSO in assay buffer), showing non-inhibited kinase activity (high values). Wells containing assay buffer instead of enzyme can serve as control for background activity (low values).
Calculate IC50 values using the Smiley program (based on GrapPad Prism)

`Cc1ncnc(-c2ccc(F)c(C(=O)N3CCCCC3)c2)c1C#Cc1ccc(N)nc1` [Example C-41] and `CCc1ncnc(-c2ccc(Cl)c(C(=O)N3CCCCC3)c2)c1C#Cc1ccc(N)nc1` [Example C-48] are within 1.5-fold of each other in IC50: 539 nM for the first, 596 nM for the second.

`CNC(=O)c1cc(-c2ncnc(C)c2C#Cc2ccc(N)nc2)ccc1F` [Example C-43] and `CCc1ncnc(-c2ccc(C(=O)NC)c(F)c2)c1C#Cc1ccc(N)nc1` [Example D-5] are within 1.5-fold of each other in IC50: 184 nM for the first, 225 nM for the second.

Compared with `CCc1ncnc(-c2cccc(C(=O)N(CC)CC)c2)c1C#Cc1ccc(N)nc1` [Example C-44], `CCc1ncnc(-c2ccc(Cl)c(C(=O)N(CC)CC)c2)c1C#Cc1ccc(N)nc1` [Example C-47] is 2.9-fold higher in IC50: 188 nM for the first, 541 nM for the second. The first is the more potent here.

`CCc1ncnc(-c2ccc(F)c(C(=O)N3CCOCC3)c2)c1C#Cc1ccc(N)nc1` [Example C-46] and `CCc1ncnc(-c2ccc(C(=O)N3CCC(N4CCOCC4)CC3)c(F)c2)c1C#Cc1ccc(N)nc1` [Example D-63] are within 1.5-fold of each other in IC50: 226 nM for the first, 234 nM for the second.

`CCc1ncnc(-c2ccc(Cl)c(C(=O)NC)c2)c1C#Cc1ccc(N)nc1` [Example C-49] and `CCc1ncnc(-c2cccc(C(=O)NC)c2)c1C#Cc1ccc(N)nc1` [Example C-50] are within 1.5-fold of each other in IC50: 67 nM for the first, 72 nM for the second.

`CCc1ncnc(-c2ccc(C(=O)N(C)CCCOC)c(F)c2)c1C#Cc1ccc(N)nc1` [Example D-1] and `CCc1ncnc(-c2ccc(C(=O)N(C)CCOC)c(F)c2)c1C#Cc1ccc(N)nc1` [Example D-7] are within 1.5-fold of each other in IC50: 78 nM for the first, 103 nM for the second.

Going from `CCc1ncnc(-c2ccc(C(=O)N(C)C3CCN(C)CC3)c(F)c2)c1C#Cc1ccc(N)nc1` [Example D-3] to `CCc1ncnc(-c2ccc(C(=O)N(C)CC3CCN(C)CC3)c(F)c2)c1C#Cc1ccc(N)nc1` [Example D-76], the IC50 falls from 574 nM to 339 nM (1.7-fold). The second is the more potent here.

Compared with `CCc1ncnc(-c2ccc(C(=O)N(C)CCCO)c(F)c2)c1C#Cc1ccc(N)nc1` [Example D-4], `CCc1ncnc(-c2ccc(C(=O)N(C)CCCN(C)C)c(F)c2)c1C#Cc1ccc(N)nc1` [Example D-9] is 10-fold higher in IC50: 58 nM for the first, 591 nM for the second.

`CCc1ncnc(-c2ccc(C(=O)N3CCN(C)CC3)c(F)c2)c1C#Cc1ccc(N)nc1` [Example D-8] and `CCCCN1CCN(C(=O)c2ccc(-c3ncnc(CC)c3C#Cc3ccc(N)nc3)cc2F)CC1` [Example D-83] are within 1.5-fold of each other in IC50: 215 nM for the first, 219 nM for the second.

Going from `CCc1ncnc(-c2ccc(C(=O)N3CCCCC3)c(F)c2)c1C#Cc1ccc(N)nc1C` [Example D-10] to `CCc1ncnc(-c2ccc(C(=O)N3CCOCC3)c(F)c2)c1C#Cc1ccc(N)nc1C` [Example D-20], the IC50 falls from 206 nM to 116 nM (1.8-fold). The second is the more potent here.

Going from `CCc1ncnc(-c2ccc(C(=O)N3CCN(CC(F)F)CC3)c(F)c2)c1C#Cc1ccc(N)nc1C` [Example D-12] to `CCc1ncnc(-c2ccc(C(=O)N3CCN(C)CC3)c(F)c2)c1C#Cc1ccc(N)nc1C` [Example D-21], the IC50 rises from 163 nM to 270 nM (1.7-fold). The first is the more potent here.

Going from `CCc1ncnc(-c2ccc(C(=O)N3CCN(C4CC4)CC3)c(F)c2)c1C#Cc1ccc(N)nc1C` [Example D-13] to `CCc1ncnc(-c2ccc(C(=O)N3CCN(C4CCS(=O)(=O)C4)CC3)c(F)c2)c1C#Cc1ccc(N)nc1C` [Example D-17], the IC50 falls from 312 nM to 178 nM (1.8-fold). The second is the more potent here.

Going from `CCc1ncnc(-c2ccc(C(=O)N3CCC(C(F)(F)F)CC3)c(F)c2)c1C#Cc1ccc(N)nc1C` [Example D-14] to `CCc1ncnc(-c2ccc(C(=O)N3CCN(C(C)=O)CC3)c(F)c2)c1C#Cc1ccc(N)nc1C` [Example D-82], the IC50 falls from 647 nM to 146 nM (4.4-fold). The second is the more potent here.

Compared with `CCc1ncnc(-c2ccc(C(=O)N3CCN(CC4CCCO4)CC3)c(F)c2)c1C#Cc1ccc(N)nc1C` [Example D-16], `CCc1ncnc(-c2ccc(C(=O)N3CCN(CC4CCCCC4)CC3)c(F)c2)c1C#Cc1ccc(N)nc1C` [Example D-22] is 6.6-fold higher in IC50: 192 nM for the first, 1270 nM for the second. The first is the more potent here.

`CCc1ncnc(-c2ccc(C(=O)N3CCN4CCCCC4C3)c(F)c2)c1C#Cc1ccc(N)nc1C` [Example D-18] and `CCc1ncnc(-c2ccc(C(=O)N3CCN(CCN(C)C)CC3)c(F)c2)c1C#Cc1ccc(N)nc1C` [Example D-26] are within 1.5-fold of each other in IC50: 481 nM for the first, 552 nM for the second.

`CCc1ncnc(-c2ccc(C(=O)N3CCN(S(=O)(=O)CC)CC3)c(F)c2)c1C#Cc1ccc(N)nc1C` [Example D-19] and `CCc1ncnc(-c2ccc(C(=O)N3CCN(CC(=O)N(C)C)CC3)c(F)c2)c1C#Cc1ccc(N)nc1C` [Example D-23] are within 1.5-fold of each other in IC50: 92 nM for the first, 123 nM for the second.

Going from `CCc1ncnc(-c2ccc(C(=O)N3CCN(Cc4ccccc4)CC3)c(F)c2)c1C#Cc1ccc(N)nc1C` [Example D-24] to `CCc1ncnc(-c2ccc(C(=O)N3CCN(c4ccccc4)CC3)c(F)c2)c1C#Cc1ccc(N)nc1C` [Example D-25], the IC50 falls from 1020 nM to 498 nM (2-fold). The second is the more potent here.

`CCCCN1CCN(C(=O)c2ccc(-c3ncnc(CC)c3C#Cc3ccc(N)nc3)cc2Cl)CC1` [Example D-29] and `CCc1ncnc(-c2ccc(C(=O)N3CCN(CC)CC3)c(Cl)c2)c1C#Cc1ccc(N)nc1` [Example D-45] are within 1.5-fold of each other in IC50: 162 nM for the first, 186 nM for the second.

`CCc1ncnc(-c2ccc(C(=O)N(C)CCCOC)c(Cl)c2)c1C#Cc1ccc(N)nc1` [Example D-30] and `CCc1ncnc(-c2ccc(C(=O)N(C)CCOC)c(Cl)c2)c1C#Cc1ccc(N)nc1` [Example D-35] are within 1.5-fold of each other in IC50: 68 nM for the first, 63 nM for the second.

`CCc1ncnc(-c2ccc(C(=O)N3CCN(C4CCOCC4)CC3)c(Cl)c2)c1C#Cc1ccc(N)nc1` [Example D-31] and `CCc1ncnc(-c2ccc(C(=O)N3CCN(C4CCS(=O)(=O)C4)CC3)c(Cl)c2)c1C#Cc1ccc(N)nc1` [Example D-32] are within 1.5-fold of each other in IC50: 97 nM for the first, 121 nM for the second.

Going from `CCc1ncnc(-c2ccc(C(=O)NCCOC)c(Cl)c2)c1C#Cc1ccc(N)nc1` [Example D-33] to `CCc1ncnc(-c2ccc(C(=O)N(C)CCO)c(Cl)c2)c1C#Cc1ccc(N)nc1` [Example D-34], the IC50 falls from 181 nM to 36 nM (5-fold). The second is the more potent here.

First: CCc1ncnc(-c2ccc(C(=O)N3CCN(CCO)CC3)c(Cl)c2)c1C#Cc1ccc(N)nc1 [Example D-36]
Second: CCc1ncnc(-c2ccc(C(=O)N3CCN(CCO)CC3)c(OC)c2)c1C#Cc1ccc(N)nc1 [Example D-57]
The IC50 of the first is 1.8-fold lower: 84 nM for the first, 152 nM for the second. The first is the more potent here.

`CCc1ncnc(-c2ccc(C(=O)N3CCN(c4ccccn4)CC3)c(Cl)c2)c1C#Cc1ccc(N)nc1` [Example D-37] and `CCc1ncnc(-c2ccc(C(=O)N3CCN(c4ccccc4)CC3)c(Cl)c2)c1C#Cc1ccc(N)nc1` [Example D-39] are within 1.5-fold of each other in IC50: 118 nM for the first, 89 nM for the second.

Compared with `CCc1ncnc(-c2ccc(C(=O)N3CCN(CC(F)F)CC3)c(Cl)c2)c1C#Cc1ccc(N)nc1` [Example D-41], `CCc1ncnc(-c2ccc(C(=O)N3CCN(CC(F)F)CC3)c(F)c2)c1C#Cc1ccc(N)nc1` [Example D-61] is 2.1-fold lower in IC50: 177 nM for the first, 86 nM for the second.

First: CCc1ncnc(-c2ccc(C(=O)N3CCN(C(C)(C)C)CC3)c(Cl)c2)c1C#Cc1ccc(N)nc1 [Example D-43]
Second: CCc1ncnc(-c2ccc(C(=O)N3CCN(C(C)(C)C)CC3)c(OC)c2)c1C#Cc1ccc(N)nc1 [Example D-48]
The IC50 of the first is 1.7-fold higher: 436 nM for the first, 251 nM for the second.

`CCc1ncnc(-c2ccc(C(=O)N3CCNC(=O)C3)c(Cl)c2)c1C#Cc1ccc(N)nc1` [Example D-44] and `CCc1ncnc(-c2ccc(C(=O)N3CCNC(=O)C3)c(OC)c2)c1C#Cc1ccc(N)nc1` [Example D-59] are within 1.5-fold of each other in IC50: 27 nM for the first, 19 nM for the second.

`CCc1ncnc(-c2ccc(C(=O)N3CCN(C(C)=O)CC3)c(Cl)c2)c1C#Cc1ccc(N)nc1` [Example D-46] and `CCc1ncnc(-c2ccc(C(=O)N3CCN(C(C)=O)CC3)c(OC)c2)c1C#Cc1ccc(N)nc1` [Example D-56] are within 1.5-fold of each other in IC50: 97 nM for the first, 73 nM for the second.

Compared with `CCc1ncnc(-c2ccc(C(=O)N3CCN(CC(F)F)CC3)c(OC)c2)c1C#Cc1ccc(N)nc1` [Example D-47], `CCc1ncnc(-c2ccc(C(=O)N3CCN(CC)CC3)c(OC)c2)c1C#Cc1ccc(N)nc1` [Example D-53] is 3.4-fold higher in IC50: 63 nM for the first, 213 nM for the second.

Compared with `CCc1ncnc(-c2ccc(C(=O)N3CCN(C(C)C)CC3)c(OC)c2)c1C#Cc1ccc(N)nc1` [Example D-50], `CCc1ncnc(-c2ccc(C(=O)N3CCN(CCOC)CC3)c(OC)c2)c1C#Cc1ccc(N)nc1` [Example D-52] is 1.6-fold lower in IC50: 211 nM for the first, 134 nM for the second.

Going from `CCc1ncnc(-c2ccc(C(=O)N3CCN(CC(F)(F)F)CC3)c(OC)c2)c1C#Cc1ccc(N)nc1` [Example D-54] to `CCc1ncnc(-c2ccc(C(=O)N3CCN(CC(F)(F)F)CC3)c(F)c2)c1C#Cc1ccc(N)nc1` [Example D-69], the IC50 rises from 81 nM to 133 nM (1.6-fold).

Going from `CCc1ncnc(-c2ccc(C(=O)N3CCN(S(=O)(=O)CC)CC3)c(OC)c2)c1C#Cc1ccc(N)nc1` [Example D-55] to `CCc1ncnc(-c2ccc(C(=O)N3CCN(CCN(C)C)CC3)c(OC)c2)c1C#Cc1ccc(N)nc1` [Example D-60], the IC50 rises from 36 nM to 546 nM (15-fold). The first is the more potent here.

`CCc1ncnc(-c2ccc(C(=O)N3CCC(N4CCN(C)CC4)CC3)c(F)c2)c1C#Cc1ccc(N)nc1` [Example D-62] and `CCc1ncnc(-c2ccc(C(=O)N3CCN(C4CCN(C)CC4)CC3)c(F)c2)c1C#Cc1ccc(N)nc1` [Example D-64] are within 1.5-fold of each other in IC50: 205 nM for the first, 198 nM for the second.

`CCc1ncnc(-c2ccc(C(=O)NC3CCN(C)CC3)c(F)c2)c1C#Cc1ccc(N)nc1` [Example D-65] and `CCc1ncnc(-c2ccc(C(=O)NCC3CCN(C)CC3)c(F)c2)c1C#Cc1ccc(N)nc1` [Example D-77] are within 1.5-fold of each other in IC50: 436 nM for the first, 303 nM for the second.

First: CCc1ncnc(-c2ccc(C(=O)N3CCC(N4CCN(C5CCN(C)CC5)CC4)CC3)c(F)c2)c1C#Cc1ccc(N)nc1 [Example D-67]
Second: CCc1ncnc(-c2ccc(C(=O)N3CCC(N4CCCCC4)CC3)c(F)c2)c1C#Cc1ccc(N)nc1 [Example D-70]
The IC50 of the first is 2-fold lower: 244 nM for the first, 490 nM for the second. The first is the more potent here.

Compared with `CCc1ncnc(-c2ccc(C(=O)N(C)O)c(F)c2)c1C#Cc1ccc(N)nc1` [Example D-68], `CCc1ncnc(-c2ccc(C(=O)N(C)CC(C)(C)O)c(F)c2)c1C#Cc1ccc(N)nc1` [Example D-81] is 2-fold higher in IC50: 42 nM for the first, 84 nM for the second.

Going from `CCc1ncnc(-c2ccc(C(=O)N3CCC(O)CC3)c(F)c2)c1C#Cc1ccc(N)nc1` [Example D-71] to `CCc1ncnc(-c2ccc(C(=O)N3CCC(C(C)(C)O)CC3)c(F)c2)c1C#Cc1ccc(N)nc1` [Example D-79], the IC50 rises from 85 nM to 170 nM (2-fold). The first is the more potent here.

Going from `CCc1ncnc(-c2ccc(C(=O)N(C)CC3CCCN(C)C3)c(F)c2)c1C#Cc1ccc(N)nc1` [Example D-73] to `CCc1ncnc(-c2ccc(C(=O)NCC3CCCN(C)C3)c(F)c2)c1C#Cc1ccc(N)nc1` [Example D-74], the IC50 rises from 324 nM to 630 nM (1.9-fold). The first is the more potent here.

Compound `CCc1ncnc(-c2ccc(C(=O)NCC3CCN(C)C3)c(F)c2)c1C#Cc1ccc(N)nc1` [Example D-75] has an IC50 of 335 nM.
